According to patent publication US20260317299A1, “PIKFYVE PROTEIN KINASE DEGRADATION AGENT AND USE THEREOF” (Shanghai Institute of Organic Chemistry, Chinese Academy of …, priority 2023, published 2026):

Target: T1, PIKfyve (Homo sapiens, UniProt Q9Y2I7)
T1 construct: endogenous in cells; host or cells: VCaP
Experiment: Degradation of PIKfyve proteins in VCaP tumor cells (24 h, Western blot)
Format: cell-based
Settings: 37° C., compared with DMSO control, WB, read-out: DC50 (concentration that achieves 50% degradation activity)
Procedure, shortened: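 VCaP cells (5×10^6 cells/ml) treated with a range of compound concentrations at 37° C for 24 h, then lysed in SDS buffer. PIKfyve level measured by Western blot with GAPDH as loading control and ECL detection. DC50 is the concentration giving 50% degradation relative to DMSO control.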

T1 sequence (Q9Y2I7 whole entry): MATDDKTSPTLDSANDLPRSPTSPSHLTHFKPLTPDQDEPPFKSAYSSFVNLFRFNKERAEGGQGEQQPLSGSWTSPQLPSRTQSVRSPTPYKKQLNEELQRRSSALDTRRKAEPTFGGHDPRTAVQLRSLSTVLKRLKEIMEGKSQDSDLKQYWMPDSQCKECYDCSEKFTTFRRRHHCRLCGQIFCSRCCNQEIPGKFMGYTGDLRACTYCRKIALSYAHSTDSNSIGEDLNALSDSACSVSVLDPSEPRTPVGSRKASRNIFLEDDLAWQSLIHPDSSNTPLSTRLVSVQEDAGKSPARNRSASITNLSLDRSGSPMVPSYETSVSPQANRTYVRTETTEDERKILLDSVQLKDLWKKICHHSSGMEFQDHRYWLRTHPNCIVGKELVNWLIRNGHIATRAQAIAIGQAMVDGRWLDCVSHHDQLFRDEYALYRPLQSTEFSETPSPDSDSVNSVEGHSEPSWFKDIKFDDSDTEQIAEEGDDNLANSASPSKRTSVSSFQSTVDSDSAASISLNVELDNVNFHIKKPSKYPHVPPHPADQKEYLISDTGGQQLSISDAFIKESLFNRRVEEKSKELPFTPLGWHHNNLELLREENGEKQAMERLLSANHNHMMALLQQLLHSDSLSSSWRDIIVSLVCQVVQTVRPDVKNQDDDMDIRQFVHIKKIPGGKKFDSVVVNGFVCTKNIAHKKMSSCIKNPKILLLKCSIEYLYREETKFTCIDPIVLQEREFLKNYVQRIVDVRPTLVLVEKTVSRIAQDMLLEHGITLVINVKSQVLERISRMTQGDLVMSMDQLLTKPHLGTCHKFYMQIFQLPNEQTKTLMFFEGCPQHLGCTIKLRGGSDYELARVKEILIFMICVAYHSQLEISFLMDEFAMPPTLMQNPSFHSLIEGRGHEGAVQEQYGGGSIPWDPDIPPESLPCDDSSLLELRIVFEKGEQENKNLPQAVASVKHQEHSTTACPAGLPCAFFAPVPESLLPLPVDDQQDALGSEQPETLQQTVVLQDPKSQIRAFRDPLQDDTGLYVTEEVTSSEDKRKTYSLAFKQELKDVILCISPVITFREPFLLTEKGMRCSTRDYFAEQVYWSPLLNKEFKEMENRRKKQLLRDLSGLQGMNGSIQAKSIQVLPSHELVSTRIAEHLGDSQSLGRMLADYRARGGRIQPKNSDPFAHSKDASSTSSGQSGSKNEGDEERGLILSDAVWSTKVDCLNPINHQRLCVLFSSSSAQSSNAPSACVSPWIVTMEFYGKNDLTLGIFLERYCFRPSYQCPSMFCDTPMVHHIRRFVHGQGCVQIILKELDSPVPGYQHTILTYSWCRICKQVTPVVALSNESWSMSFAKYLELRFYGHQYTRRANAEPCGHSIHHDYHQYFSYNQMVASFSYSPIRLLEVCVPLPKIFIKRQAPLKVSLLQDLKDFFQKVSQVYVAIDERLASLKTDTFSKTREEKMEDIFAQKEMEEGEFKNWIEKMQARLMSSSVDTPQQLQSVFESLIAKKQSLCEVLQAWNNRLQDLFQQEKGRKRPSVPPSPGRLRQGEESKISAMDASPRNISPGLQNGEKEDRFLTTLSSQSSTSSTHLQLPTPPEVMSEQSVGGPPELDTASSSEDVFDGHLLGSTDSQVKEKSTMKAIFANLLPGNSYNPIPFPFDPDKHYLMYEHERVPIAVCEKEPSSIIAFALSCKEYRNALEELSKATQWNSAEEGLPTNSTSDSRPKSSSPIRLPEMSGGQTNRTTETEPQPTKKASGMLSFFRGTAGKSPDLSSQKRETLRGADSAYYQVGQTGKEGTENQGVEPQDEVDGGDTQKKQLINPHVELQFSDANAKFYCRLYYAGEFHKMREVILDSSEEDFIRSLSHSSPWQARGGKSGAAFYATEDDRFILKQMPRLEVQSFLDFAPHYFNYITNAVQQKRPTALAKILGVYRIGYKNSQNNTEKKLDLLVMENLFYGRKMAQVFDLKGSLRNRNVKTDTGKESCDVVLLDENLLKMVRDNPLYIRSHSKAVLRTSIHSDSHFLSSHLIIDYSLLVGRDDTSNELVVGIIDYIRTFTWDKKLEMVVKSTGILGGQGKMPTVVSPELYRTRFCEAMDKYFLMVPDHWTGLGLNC

- DC50: 0.1 to 10 µM
SMILES: Cc1cccc(/C=N/Nc2cc(N3CCOCC3)nc(OCCc3ccc(NC(=O)CCCCCNc4ccc5c(c4)C(=O)N(C4CCC(=O)NC4=O)C5=O)cc3)n2)c1 (stereo not shown) [Example 17, (E)-6-((2-(2,6-dioxopiperidin-3-yl)-1,3-dioxoisoindolin-5-yl)amino)-N-(4-(2-((4-(2-(3-methylbenzylidene)hydrazino)-6-morpholinopyrimidin-2-yl)oxy)ethyl)phenyl) hexanamide]
